Results taken from ChEMBL document CHEMBL2321749, “Incorporation of rapid thermodynamic data in fragment-based drug discovery” (J Med Chem, 2013).

Key:
Steroid Delta-isomerase [1] = molecular target: T1, Steroid Delta-isomerase (Pseudomonas putida, UniProt P07445); test: Binding affinity to Pseudomonas putida KSI by isothermal titration calorimetry
T1 sequence (P07445 whole entry): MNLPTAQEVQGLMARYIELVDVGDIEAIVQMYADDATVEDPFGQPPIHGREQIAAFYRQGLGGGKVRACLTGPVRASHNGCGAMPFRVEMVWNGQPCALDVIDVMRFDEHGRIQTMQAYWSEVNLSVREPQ

Steroid Delta-isomerase [2] = molecular target: T1, Steroid Delta-isomerase; test: Binding affinity to Pseudomonas putida KSI by surface plasmon resonance analysis
[3] = molecular target: T2, Steroid Delta-isomerase (Pseudomonas putida) (UniProt P07445); test: Ratio of KD for Pseudomonas putida KSI by surface plasmon resonance analysis to KD for Pseudomonas putida KSI by surface plasmon resonance analysis
T2 sequence (whole entry): T1 sequence (P07445 whole entry)

Kd (Steroid Delta-isomerase [1]) | Kd (Steroid Delta-isomerase [2]) | Structure (SMILES) | Ratio [3]
50 µM | – | NC(=O)/C=C/c1cccc(C(F)(F)F)c1 | –
63 µM | – | Cn1cc(C(N)=O)c2ccccc21 | –

Second part, the compound before the results:

Structure (SMILES) | Kd (Steroid Delta-isomerase [1]) | Kd (Steroid Delta-isomerase [2]) | Ratio [3]
C[C@H](CCC(=O)O)[C@H]1CC[C@H]2[C@@H]3CC[C@@H]4C[C@H](O)CC[C@]4(C)[C@H]3C[C@H](O)[C@]12C [DEOXYCHOLIC ACID] | 16 µM | 16 µM | –
CN1CCC2(C)c3cc(O)ccc3N(C)C12 (stereo not drawn) | 180 µM | – | 1.8
NC(=O)Nc1cccc(C(F)(F)F)c1 | 46 µM | – | –
Cc1nnc2ccc(N3CCCC3)nn12 | 22 µM | – | –
